The values that follow come from patent US9079821B2, “Quinone based nitric oxide donating compounds” (NICOX S.A., priority 2011, dated 2015).

Assay [1] concerns lipid peroxidation of hepatic microsomal membranes. Put plainly: In vitro antioxidant activity (TBARS test), Method B (2.5 μM FeSO4). To be noted: inhibition of TBARS production, read-out: Antioxidant activity IC50 μM (CL 95%). The assay is classed as biochemical, rat. How it is done: The antioxidant properties of compounds (6) (disclosed in example 1) and compound (23) (disclosed in example 19) and reference antioxidant compounds were assessed after NADPH-induced lipidic peroxidation of membrane lipids in rat hepatocytes using the detection of 2-thiobarbituric acid reactive substances (TBARS) by visible spectroscopy. Hepatic microsomal membranes from male Wistar rats (200-250 g) were prepared by differential centrifugation (8000 g, 20 min; 120000 g, 1 h) in a HEPES/sucrose buffer (10 mM, 250 mM, pH 7.4) and stored at −80° C. Incubation was performed at 37° C. in a Tris-HCl/KCl (100 mM/150 mM, pH 7.4) containing microsomal membranes (2 mg prot/mL), sodium ascorbate (100 μM), and DMSO solutions of the tested compounds. Lipid peroxidation was initiated by adding ADP-FeCl3 and NADPH (Method A) or 2.5 μM FeSO4 (Method B) (as described by Boschi D. et al., J. Med. Chem. 2006, 49:2886-2897). Aliquots were taken from the incubation mixture at 5, 15, and 30 min and treated with trichloroacetic acid (TCA) 10% w/v. Lipid peroxidation was assessed by spectrophotometric (543 nm) determination of the TBARS consisting mainly of malondialdehyde (MDA). TBARS concentrations (expressed in nmol/mg protein) were obtained by interpolation with a MDA standard curve. […] IC50 values were calculated by nonlinear regression analysis.

Assay [2] has as its system NADPH-induced lipidic peroxidation of membrane lipids (hepatic microsomal membranes). The assay is described as follows: In vitro antioxidant activity (TBARS test), Method A (ADP-FeCl3 and NADPH). The assay is classed as biochemical, rat. To be noted: inhibition of TBARS production after 30 min incubation, read-out: Antioxidant activity IC50 μM (CL 95%). How it is done:
The antioxidant properties of compounds (6) (disclosed in example 1) and compound (23) (disclosed in example 19) and reference antioxidant compounds were assessed after NADPH-induced lipidic peroxidation of membrane lipids in rat hepatocytes using the detection of 2-thiobarbituric acid reactive substances (TBARS) by visible spectroscopy.
Hepatic microsomal membranes from male Wistar rats (200-250 g) were prepared by differential centrifugation (8000 g, 20 min; 120000 g, 1 h) in a HEPES/sucrose buffer (10 mM, 250 mM, pH 7.4) and stored at −80° C. Incubation was performed at 37° C. in a Tris-HCl/KCl (100 mM/150 mM, pH 7.4) containing microsomal membranes (2 mg prot/mL), sodium ascorbate (100 μM), and DMSO solutions of the tested compounds. Lipid peroxidation was initiated by adding ADP-FeCl3 and NADPH (Method A) or 2.5 μM FeSO4 (Method B) (as described by Boschi D. et al., J. Med. Chem. 2006, 49:2886-2897). Aliquots were taken from the incubation mixture at 5, 15, and 30 min and treated with trichloroacetic acid (TCA) 10% w/v. Lipid peroxidation was assessed by spectrophotometric (543 nm) determination of the TBARS consisting mainly of malondialdehyde (MDA). TBARS concentrations (expressed in nmol/mg protein) were obtained by interpolation with a MDA standard curve. The antioxidant activity of tested compounds was evaluated as the percent inhibition of TBARS production with respect to control samples, using the values obtained after 30 min of incubation. IC50 values were calculated by nonlinear regression analysis.

The test system of assay [3] is lipid peroxidation of hepatic microsomal membranes. To be noted: Method B; values from Chegaev, K. et al. (footnotes a, b); read-out: Antioxidant activity IC50 μM (CL 95%); cited from earlier work.

Where two headings read alike, the source gives them in different places.

What is called IC50 is the midpoint of a concentration-inhibition curve. For `O=C(O)/C=C/c1ccc(O)c(O)c1` [Caffeic acid], the IC50 in assay [1] was found to be 33 µM.

Regarding `CC1=C(CCCCCCO[N+](=O)[O-])C(=O)c2ccccc2C1=O` [Compound (23), 6-(3-methyl-1,4-dioxo-1,4-dihydronaphthalen-2-yl) hexyl nitrate], the IC50 in assay [2] was 1.4 µM.

Take `CC1=NN(c2ccccc2)C(=O)C1` [Edavarone]: in assay [3], the IC50 was 17 µM.

Consider `COC1=C(OC)C(=O)C(CCCCCCCCCCO)=C(C)C1=O` [Idebenone, reference compound], for which, in assay [2], the IC50 stood at 1.6 µM.

For the compound `COc1ccc2[nH]cc(CCNC(C)=O)c2c1` [Melatonin], the IC50 in assay [3] is 476 µM.
